Assay results reported in patent publication US20030109546A1, “Treatment of psychotic disorders comprising co-therapy with anticonvulsant derivatives and atypical antipsychotics” (priority 2001, published 2003).

How the values were obtained:
schizophrenia [1] = assay: Example 3 case study: augmentation of clozapine treatment; type: in vivo, human
Excerpt: The patient was a morbidly obese person, who was first hospitalized in 1966 for psychotic symptoms, leading to a psychiatric diagnosis of schizophrenia. Their primary symptoms consisted of a set of strange and elaborate ideas about transmitting their thoughts to others, thoughts that they had invented “invisible steel” which was being used by the CIA and aliens, and a high degree of suspiciousness about the discriminatory intent of their clergyman and the local police. They denied any overt hallucinations, although they acknowledged “weird noises” associated with aliens attempting to contact them. At initial hospitalization, the patient was also profoundly confused and disorganized in their thought processes. Over the next two decades they were hospitalized four more times with essentially this same clinical picture, eventually being admitted in 1989 to a state hospital for long-term treatment where they remain to this day.
During their five hospitalizations the patient was treated with a variety of anti-psychotic medications, often in various combinations and dosages. In 1994 they were characterized as being treatment refractory according to the Kane criteria and enrolled in an NIMH sponsored study of three different doses of clozapine. As a participant in this study the patient received 100, 300, 600 mg, each for a 3-month period.
The patient was nonetheless continued on a 100 mg dose of clozapine, with the intent of using a variety of different augmentation strategies to possibly improve their clinical state. […] Throughout this period, the patient's strange and bizarre ideas persisted. They remained emotionally withdrawn, and required regular PRN medication to reduce their agitation on the ward.
Toward the end of the year 2000, the patient was treated with a drug regimen of 100 mg of clozapine, 2 mg of risperidone, and 750 mg of valproic acid. At this time, the patient agreed to augment their treatment with topiramate. The valproic acid was gradually withdrawn, and on Dec. 5, 2000 the patient was started on 50 mg of topiramate. The topiramate was increased at a rate of 50 mg per week up to a daily dosage of 200 mg where they remained for over four months. Within the first 2-3 weeks of topiramate treatment several important clinical changes were observed. […] Rather than being very certain about their ability to transmit thought to others they now are not sure that this is possible. They were also no longer certain that they actually invented “invisible steel”, but instead mostly only believed that they once thought it, although occasionally the delusional belief breaks though into their thinking. […] Second, as a result of treatment with topiramate the patient's agitation was decreased and PRN medication for agitation was no longer required.

seizures = details: several rodent models of epilepsy; cited from earlier work
schizophrenia [2] = assay: Example 2 open label pilot study on topiramate as adjunctive therapy in schizophrenia; type: in vivo, human
[3] = tested on: schizophrenia, undifferentiated type; assay: Example 4 case study: topiramate added to haloperidol and risperidone; type: in vivo, human
Excerpt: The patient was a person, who was first hospitalized in 1983 on an involuntary basis-due to their inability to care for themself. Upon admission, they were described as paranoid, suspicious, agitated, and delusional, and was given the diagnosis of schizophrenia, undifferentiated type. They expressed persecutory delusions saying that the Mafia was going to hurt them. They heard voices telling them that someone was going to rape their parent. After one year of hospitalization, they were discharged into the community, where they soon became unstable resulting in two suicide attempts by hanging and two more short-term hospitalizations. In 1988 the patient was admitted into a state hospital for long-term treatment where they remain to this day. Over the past decade or more, their clinical picture had remained unchanged. They had been treated with numerous anti-psychotic medications, including the newer a typical medicines with little or no benefit. Their high level of agitation and persecutory delusions often propelled them into confrontations with staff and other patients, and they were regularly treated with PRN medications or placed into seclusion for their behavior. […] The topiramate dosage was titrated at a rate of 50 mg per week up to a daily dosage of 150 mg, at which dose the patient remained for a period of 4 months. Within the first month of treatment with topiramate several important clinical changes began to emerge. […] Within 1-2 weeks, the patient was no longer in seclusion and the use of PRN medication for agitation became very rare. Second, the patient's expressions persecutory delusions or suspiciousness decreased, and they were able to join into group activities on the unit.

[4] = tested on: simple and complex partial seizures and secondarily generalized seizures; details: adjunctive therapy or monotherapy; cited from earlier work
kindled epilepsy = details: animal model of kindled epilepsy; cited from earlier work
schizoaffective disorder = assay: Example 1 case study: topiramate added to olanzapine-containing regimen; type: in vivo, human
Excerpt: The patient was a single person, diagnosed with schizoaffective disorder, who presented with a variety of problems including disorganized behavior, suspiciousness, ideas of reference, stereotyped and obsessional thinking, lack of motivation, poor hygiene, poverty of speech, oppositional behavior and intermittent suicide attempts. The patient spent virtually the entire day in bed and was awake through the night. […] Despite continuous psychiatric and pharmacological treatment, the patient remained substantially disabled by withdrawal, apathy, poverty of speech, poor hygiene, anhedonia and suspiciousness. […] In addition, the patient was seen weekly in individual psychotherapy. There were no additional active medical problems. The patient was started on topiramate with dosages increased over a period of six weeks to 400 mg/day. […] In addition, the patient's residual positive symptoms, including primary suspiciousness and ideas of reference, were improved and the patient became less fearful of interacting with other. Patient's social functioning was improved, with the patient able to hold part-time employment. […] The patient maintained their part-time employment and engaged in productive social activity several times a week. […] (Lorazepam was removed with sustained improvement.)

schizophrenia [5] = assay: Example 2 open label pilot study on topiramate as adjunctive therapy in schizophrenia; type: in vivo, human; details: Patient 1
Experimental: Results from Open Label Pilot Study on Topiramate as Adjunctive Therapy in the Treatment of Schizophrenia
The patient was a person who met DSM-IV diagnostic criteria for chronic undifferentiated schizophrenia. […] The patient had been maintained on a stable regimen of 20 mg olanzapine prior to initiation of the study. […] Although the patient lived in a group home with other residents, they preferred to spend most of their free time alone, watching television or staying in their room, and went to bed between 7 and 8 o'clock each night. The patient had limited social interactions in the partial hospitalization program, initiating contact with only a few friends. The patient was intrusive during groups and was unable to empathize with others within the group.
The patient was begun on topiramate at an initial dose of 25 mg/day, titrating to an optimal dosage level of 175 mg/day, which was given in two divided doses during an eight week maintenance medication phase of a clinical trial.
They also became less stereotyped in their speech, with very infrequent references to their previous recurrent theme of golf. After 12 weeks of adjunctive therapy with topiramate, the patient also appeared more realistic about their golfing skills, stating than they were an “average” golfer, as opposed to their previous assertions about winning several club tournaments.
The patient also resumed going to bed around 6:30 or 7:00 pm each night.

[6] = topiramate 50 to 200 mg daily added to 100 mg clozapine, 2 mg risperidone
[7] = period of treatment that included topiramate
[8] = topiramate 50 to 150 mg daily added to haloperidol and risperidone
[9] = topiramate up to 400 mg/day added to olanzapine-containing regimen
[10] = topiramate 175 mg/day added to 20 mg olanzapine
[11] = topiramate 25 to 175 mg/day added to 20 mg olanzapine

## CCCC(CCC)C(=O)O [Depakote, divalproex sodium]
Schizophrenia [1]; up to 5000 mg added to clozapine, 1999
  benefit when added to clozapine treatment: little benefit

## CN1CCN(C2=Nc3cc(Cl)ccc3Nc3ccccc32)CC1 [clozapine, 8-chloro-11-(4-methyl-1-piperazinyl)-5H-dibenzo[b,e][1,4]diazepine]
Schizophrenia [1]; 900 mg of clozapine
  adverse event: led to a seizure
Schizophrenia [1]; clozapine 100, 300, 600 mg, each for 3 months (NIMH study)
  response to treatment: did not show any meaningful response

## Cc1nc2n(c(=O)c1CCN1CCC(c3noc4cc(F)ccc34)CC1)CCCC2 [risperidone, 3-[2-[4-(6-fluoro-1,2-benzisoxazol-3-yl)piperidino]ethyl]-2-methyl-6,7,8,9-tetrahydro-4H-pyrido-[1,2-a]pyrimidin-4-one]
Schizophrenia [1]; standard dose added to 100 mg clozapine
  adverse event when added to clozapine treatment: severe tremors
Schizophrenia [1]; standard doses added to 100 mg clozapine
  effect when added to clozapine treatment: little effect
Schizophrenia [1]; study in 2000
  benefit of clozapine augmentation with low dose risperidone: lack of treatment benefit

## CC1(C)O[C@@H]2[C@@H](CO[C@@]3(COS(N)(=O)=O)OC(C)(C)O[C@@H]23)O1 [topiramate, 2,3:4,5-bis-O-(1-methylethylidene)-β-D-fructopyranose sulfamate]
Schizophrenia [1]; addition of topiramate
  clinical state (opinion of the treatment team): clear and important degree of improvement
Schizophrenia [1]; [6]
  level of suspiciousness: decreased
  thought organisation / conversation: able to engage in a logical conversation
Schizophrenia [1]; topiramate 50 to 200 mg daily added to 100 mg clozapine, 2 mg risperidone, PRN medication no longer required
  agitation: decreased
Schizophrenia [1]; topiramate 50 to 200 mg daily added to 100 mg clozapine, 2 mg risperidone, within first 2-3 weeks
  level of preoccupation with delusional thoughts: obviously reduced
seizures
  seizure block: effectively block seizures
Schizophrenia [2]; Patients 2 & 3, adjunctive topiramate
  response with regards to negative symptoms: did not respond significantly
Schizophrenia [2]; Patients 2 & 3, over the course of the trial
  positive symptoms: decreases in positive symptoms
Schizophrenia [2]; one of Patients 2 & 3, fluctuated during drug maintenance period
  negative symptoms: limited decrease
Schizophrenia [2]; second of Patients 2 & 3, topiramate 100 mg/day
  side effect potentially attributable to topiramate: difficulties with verbal fluency and word finding
Schizophrenia [2]; second of Patients 2 & 3, topiramate 100 mg/day lowered to 75 mg/day, dropped from study
  negative symptoms: significant decrease
[3]; [7]
  intensity of positive symptoms (auditory hallucinations, delusions of persecution): reduced in occurrence and severity
  social withdrawal: less socially withdrawn
[3]; [8]
  expressions of persecutory delusions or suspiciousness: decreased
  negative symptoms: fewer negative symptoms
[3]; topiramate 50 to 150 mg daily added to haloperidol and risperidone, within first month
  level of agitation: reduced dramatically
[4]
  efficacy in treating simple and complex partial seizures and secondarily generalized seizures: effective
Kindled epilepsy
  seizure block: effectively block seizures
Schizoaffective disorder; after 5 months, topiramate decreased to 300 mg/day
  maintenance of improvement: improvements maintained
Schizoaffective disorder; after 10 months, 300 mg topiramate, 7.5 mg olanzapine, 400 mg fluvoxamine, 1 mg lorazepam daily
  maintenance of improvement: improvement was still sustained
Schizoaffective disorder; after more than 2 years, 300 mg topiramate, 7.5 mg olanzapine, 400 mg fluvoxamine daily
  maintenance of improvement: remained improved
Schizoaffective disorder; topiramate increased over six weeks to 400 mg/day, added to fluvoxamine, Depakote, lorazepam, olanzapine 10 mg, over 8 weeks
  negative symptoms (eye contact, attention, concentration, poverty of speech, grooming, hygiene, withdrawal): significant improvement
Schizoaffective disorder; [9]
  residual positive symptoms (suspiciousness, ideas of reference): improved
  social functioning: improved
Schizophrenia [5]; [10]
  change in the Positive or General Scales of the PANSS: did not show any consistent, significant change
  decrease in the Negative Scale score (PANSS) from baseline: 7 points
Schizophrenia [5]; [11]
  tolerability: well tolerated
  vital signs and laboratory values: remained within the normal range
Schizophrenia [5]; upon completion of the study protocol
  Negative Scale score after discontinuation of topiramate: increase in the Negative Scale score
